The text below walks through data of publication PMC9719791 (Science translational medicine, 2021).

The assay addresses SUMO activating enzyme (SAE) (Homo sapiens, UniProt Q9UBE0+Q9UBT2). The assay can be described thus: E1-E2 HTRF transthiolation assay with recombinantly purified SAE. In kind it is biochemical.

Molecules are shown by their SMILES.

Sequence of SUMO activating enzyme (SAE) (Q9UBT2 whole entry): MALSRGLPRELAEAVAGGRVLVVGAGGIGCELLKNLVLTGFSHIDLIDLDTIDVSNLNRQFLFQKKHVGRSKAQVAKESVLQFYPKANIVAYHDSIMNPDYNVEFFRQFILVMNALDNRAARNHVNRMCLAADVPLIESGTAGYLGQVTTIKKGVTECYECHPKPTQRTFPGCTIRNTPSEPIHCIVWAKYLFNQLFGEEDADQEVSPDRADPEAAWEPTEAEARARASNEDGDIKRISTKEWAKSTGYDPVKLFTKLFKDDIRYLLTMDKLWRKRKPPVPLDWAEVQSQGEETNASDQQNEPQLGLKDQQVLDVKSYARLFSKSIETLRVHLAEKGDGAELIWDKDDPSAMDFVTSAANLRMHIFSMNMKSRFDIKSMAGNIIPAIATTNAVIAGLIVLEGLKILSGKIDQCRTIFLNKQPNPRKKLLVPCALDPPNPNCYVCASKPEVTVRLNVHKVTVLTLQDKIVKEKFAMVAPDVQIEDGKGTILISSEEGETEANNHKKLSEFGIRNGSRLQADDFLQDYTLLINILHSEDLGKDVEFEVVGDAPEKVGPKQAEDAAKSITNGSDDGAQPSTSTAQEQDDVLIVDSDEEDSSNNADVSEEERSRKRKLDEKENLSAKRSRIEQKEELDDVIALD
Sequence of SUMO activating enzyme (SAE) (Q9UBE0 whole entry): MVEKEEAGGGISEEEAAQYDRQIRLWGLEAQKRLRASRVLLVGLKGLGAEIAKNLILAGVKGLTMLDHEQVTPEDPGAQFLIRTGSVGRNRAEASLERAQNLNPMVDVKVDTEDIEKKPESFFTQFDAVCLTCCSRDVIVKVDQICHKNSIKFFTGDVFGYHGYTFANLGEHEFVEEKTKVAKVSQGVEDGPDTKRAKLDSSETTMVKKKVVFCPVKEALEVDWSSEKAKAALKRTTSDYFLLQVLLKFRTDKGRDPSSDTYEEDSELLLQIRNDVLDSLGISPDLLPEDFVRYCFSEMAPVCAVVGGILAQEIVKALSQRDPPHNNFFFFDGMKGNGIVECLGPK
Sequence of SUMO activating enzyme (SAE) (P63279 2-158 partner): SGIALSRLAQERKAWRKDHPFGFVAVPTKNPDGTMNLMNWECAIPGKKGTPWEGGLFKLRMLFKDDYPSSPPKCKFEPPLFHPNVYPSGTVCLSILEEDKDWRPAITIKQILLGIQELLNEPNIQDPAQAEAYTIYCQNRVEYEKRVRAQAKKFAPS

Regarding `Cc1sc(C(=O)c2cncnc2N[C@@H]2C[C@H](COS(N)(=O)=O)[C@@H](O)C2)cc1[C@@H]1NCCc2ccc(Cl)cc21` [TAK-981, ((1R,2S,4R)-4-((5-(4-((1R)-7-chloro-1,2,3,4-tetrahydroisoquinolin-1-yl)-5-methylthiophene-2-carbonyl)pyrimidin-4-yl)amino)-2-hydroxycyclopentyl)methyl sulfamate], the IC50 is 0.6 nM.
